Reference: the CheMixHub viscosity set

Experiment: xn = mol fraction of the nth substance listed

ClC(Cl)(Cl)Cl + CC(C)(C)O
viscosity [mPa·s], 101 kPa
Conditions | 298.15 K | 308.15 K | 318.15 K
x2 = 0.0318 | 0.886 | 0.768 | 0.674
x2 = 0.044 | 0.888 | 0.77 | 0.674
x2 = 0.086 | 0.91 | 0.78 | 0.678
x2 = 0.1644 | 0.958 | 0.801 | 0.693
x2 = 0.2487 | 1.007 | 0.853 | 0.712
x2 = 0.3632 | 1.086 | 0.897 | 0.751
x2 = 0.4833 | 1.221 | 0.987 | 0.806
x2 = 0.6052 | 1.43 | 1.118 | 0.892
x2 = 0.7156 | 1.74 | 1.303 | 1.007
x2 = 0.8301 | 2.392 | 1.67 | 1.222
x2 = 0.9132 | 3.045 | 1.98 | 1.381

CCCC(C)=O + CC(C)=O
viscosity [mPa·s], 101 kPa
Conditions | x1 = 0.2 | x1 = 0.4 | x1 = 0.6 | x1 = 0.8
293.15 K | 0.355 | 0.391 | 0.429 | 0.467
313.15 K | 0.294 | 0.322 | 0.349 | 0.377

ClC(Cl)(Cl)Cl + CC(C)=O
viscosity [mPa·s], 101 kPa
Conditions | x1 = 0.0993 | x1 = 0.2003 | x1 = 0.2968 | x1 = 0.4207 | x1 = 0.5193 | x1 = 0.61 | x1 = 0.7052 | x1 = 0.8049 | x1 = 0.9143
293.15 K | 0.3621 | 0.4068 | 0.4555 | 0.5227 | 0.5813 | 0.6398 | 0.7073 | 0.7845 | 0.8843
298.15 K | 0.3447 | 0.3859 | 0.4311 | 0.4933 | 0.5473 | 0.6015 | 0.6632 | 0.7338 | 0.8251
303.15 K | 0.3284 | 0.3665 | 0.409 | 0.466 | 0.5196 | 0.5667 | 0.6234 | 0.6889 | 0.7757
313.15 K | 0.3001 | 0.3321 | 0.3699 | 0.4185 | 0.4649 | 0.506 | 0.5538 | 0.6106 | 0.6817

ClC(Cl)(Cl)Cl + CC(C)CO
viscosity [mPa·s], 101 kPa
Conditions | x2 = 0.0126 | x2 = 0.0461 | x2 = 0.0853 | x2 = 0.2088 | x2 = 0.2911 | x2 = 0.411 | x2 = 0.5341 | x2 = 0.7116 | x2 = 0.8407
298.15 K | 0.888 | 0.896 | 0.914 | 0.995 | 1.079 | 1.251 | 1.521 | 2.076 | 2.631
308.15 K | 0.774 | 0.774 | 0.791 | 0.845 | 0.909 | 1.023 | 1.206 | 1.581 | 1.942
318.15 K | 0.679 | 0.679 | 0.695 | 0.726 | 0.77 | 0.851 | 0.978 | 1.235 | 1.482

CC(C)[O-].CC(C)[O-].CC(C)[O-].CC(C)[O-].[Ti+4] + CC(C)O
viscosity [mPa·s], 101.3 kPa
Conditions | x1 = 0.0502 | x1 = 0.1236 | x1 = 0.2408 | x1 = 0.4582 | x1 = 0.6555
293.15 K | 2.274 | 2.136 | 2.072 | 2.134 | 2.287
303.15 K | 1.659 | 1.526 | 1.458 | 1.535 | 1.498
313.15 K | 1.274 | 1.185 | 1.133 | 1.167 | 1.123
323.15 K | 0.9981 | 0.9549 | 0.9172 | 0.9361 | 0.9108

ClC(Cl)(Cl)Cl + CC(C)O
313.15 K, 101.33 kPa
Conditions | viscosity [mPa·s]
x2 = 0.115 | 0.7291
x2 = 0.22 | 0.7336
x2 = 0.325 | 0.7548
x2 = 0.421 | 0.7812
x2 = 0.5 | 0.8175
x2 = 0.602 | 0.8746
x2 = 0.685 | 0.9355
x2 = 0.745 | 0.9868
x2 = 0.879 | 1.145

CCCCCCCCCCCCCC(=O)O + CC(C)[C@@H]1CC[C@@H](C)C[C@H]1O
100 kPa, x1 = 0.2
Conditions | viscosity [mPa·s]
298.15 K | 33.99
303.15 K | 24.78
308.15 K | 18.54
313.15 K | 14.21
318.15 K | 11.11
323.15 K | 8.85

CCCC(C)=O + CCC(C)=O
viscosity [mPa·s], 101 kPa
Conditions | x2 = 0.2 | x2 = 0.4 | x2 = 0.6 | x2 = 0.8
293.15 K | 0.483 | 0.461 | 0.439 | 0.418
313.15 K | 0.388 | 0.372 | 0.357 | 0.341

ClC(Cl)(Cl)Cl + CCC(C)=O
Conditions | viscosity [mPa·s]
298 K, 101.3 kPa, x1 = 0.1477 | 0.485
298 K, 101.3 kPa, x1 = 0.2858 | 0.543
298 K, 101.3 kPa, x1 = 0.4787 | 0.648
298 K, 101.3 kPa, x1 = 0.629 | 0.697
298 K, 101.3 kPa, x1 = 0.8296 | 0.792
298.15 K, 101.33 kPa, x2 = 0.1954 | 0.736
298.15 K, 101.33 kPa, x2 = 0.397 | 0.623
298.15 K, 101.33 kPa, x2 = 0.405 | 0.62
298.15 K, 101.33 kPa, x2 = 0.499 | 0.576
298.15 K, 101.33 kPa, x2 = 0.509 | 0.576
298.15 K, 101.33 kPa, x2 = 0.745 | 0.483
298.15 K, 101.33 kPa, x2 = 0.752 | 0.472
318 K, 101.3 kPa, x1 = 0.1385 | 0.3877
318 K, 101.3 kPa, x1 = 0.2858 | 0.4379
318 K, 101.3 kPa, x1 = 0.4821 | 0.5052
318 K, 101.3 kPa, x1 = 0.6311 | 0.5625
318 K, 101.3 kPa, x1 = 0.8418 | 0.6572

CCN(CC)CC + CCC(C)O
303.15 K, 101 kPa
Conditions | viscosity [mPa·s]
x1 = 0.01087 | 2.436
x1 = 0.02221 | 2.406
x1 = 0.0326 | 2.38
x1 = 0.04176 | 2.357
x1 = 0.05247 | 2.33
x1 = 0.06249 | 2.302
x1 = 0.07262 | 2.276
x1 = 0.08419 | 2.246
x1 = 0.09512 | 2.217

ClC(Cl)(Cl)Cl + CCC(C)O
viscosity [mPa·s], 101 kPa
Conditions | 298.15 K | 308.15 K | 318.15 K
x2 = 0.0864 | 0.89 | 0.779 | 0.679
x2 = 0.1674 | 0.934 | 0.807 | 0.686
x2 = 0.2076 | 0.91 | 0.801 | 0.695
x2 = 0.2585 | 0.94 | 0.819 | 0.701
x2 = 0.3003 | 0.954 | 0.825 | 0.713
x2 = 0.3969 | 1.053 | 0.862 | 0.731
x2 = 0.5009 | 1.163 | 0.938 | 0.783
x2 = 0.5957 | 1.335 | 1.039 | 0.86
x2 = 0.6933 | 1.545 | 1.183 | 0.942
x2 = 0.7903 | 1.863 | 1.378 | 1.087
x2 = 0.9054 | 2.429 | 1.746 | 1.287

ClC(Cl)(Cl)Cl + CCCC(=O)OCC
101.33 kPa
Conditions | viscosity [mPa·s]
303.15 K, x1 = 0.061 | 0.606
303.15 K, x1 = 0.1443 | 0.621
303.15 K, x1 = 0.2812 | 0.648
303.15 K, x1 = 0.3929 | 0.672
303.15 K, x1 = 0.5226 | 0.699
303.15 K, x1 = 0.5625 | 0.708
303.15 K, x1 = 0.6324 | 0.726
303.15 K, x1 = 0.7331 | 0.748
303.15 K, x1 = 0.8278 | 0.778
303.15 K, x1 = 0.8866 | 0.798
303.15 K, x1 = 0.9455 | 0.819
313.15 K, x1 = 0.2056 | 0.586
313.15 K, x1 = 0.4083 | 0.615
313.15 K, x1 = 0.5058 | 0.631
313.15 K, x1 = 0.6059 | 0.647
313.15 K, x1 = 0.799 | 0.69
